For one assay, the target named is T1, Human plasma kallikrein (Homo sapiens, UniProt P03952).
T1 construct: yields a heavy chain (371 amino acids) and a light chain (248 amino acids); purchased Enzyme Research Laboratories
Briefly: Plasma Kallikrein Assay. The following applies: purified Human plasma kallikrein 0.5 nM, substrate Acetyl-K-P-R-AFC, pH 7.4. The format is biochemical.

The target of the next assay is human factor XIa (Homo sapiens, UniProt P03951). Briefly: Factor XIa Assay. The format is biochemical. The following applies: human factor XIa 0.04 nM, substrate GPR-AFC, 30 min pre-incubation at 25° C., pH 7.4; read-out: FXIa IC50. The procedure:
The effectiveness of a compound of the present invention as an inhibitor of Coagulation factor XIa can be determined using a relevant purified serine protease, and an appropriate synthetic substrate. The rate of hydrolysis of the chromogenic or fluorogenic substrate by the relevant serine protease was measured both in the absence and presence of compounds of the present invention. Assays were conducted at rt or at 37° C. […] A decrease in the rate of fluorescence change in the presence of inhibitor is indicative of enzyme inhibition. Such methods are known to one skilled in the art. The results of this assay are expressed as the half-maximal inhibitory concentrations (IC50), or the inhibitory constant, Ki.
Compounds were pre-incubated for 30 min at 25° C. with human (0.04 nM) factor XIa in 50 mM HEPES buffer with 150 mM sodium chloride, 5 mM calcium chloride, 0.1% PEG 8000, pH 7.4. factor XIa enzymatic activity was determined by addition of the substrate glycine-proline-arginine-7-amido-4-trifluoromethylcoumarin (GPR-AFC) and measurement of the fluorescence at 400/505 nm after a 60 min incubation at 25° C. The % inhibition for each data point was calculated from the data and analyzed using the log (inhibitor) vs. response four parameters equation to determine the half-maximal inhibitory concentrations (IC50). The IC50 were converted to equilibrium inhibitory constants (Ki) using the Cheng-Prusoff equation.

T1 sequence (P03952 391-638 limits assumed): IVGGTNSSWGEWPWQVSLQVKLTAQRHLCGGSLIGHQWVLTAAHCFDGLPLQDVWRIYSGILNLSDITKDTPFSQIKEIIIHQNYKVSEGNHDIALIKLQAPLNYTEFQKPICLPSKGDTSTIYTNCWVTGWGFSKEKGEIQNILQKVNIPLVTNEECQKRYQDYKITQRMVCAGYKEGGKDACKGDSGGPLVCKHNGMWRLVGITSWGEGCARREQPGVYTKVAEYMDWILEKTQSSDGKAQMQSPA
T1 sequence (P03952 20-390 partner limits assumed): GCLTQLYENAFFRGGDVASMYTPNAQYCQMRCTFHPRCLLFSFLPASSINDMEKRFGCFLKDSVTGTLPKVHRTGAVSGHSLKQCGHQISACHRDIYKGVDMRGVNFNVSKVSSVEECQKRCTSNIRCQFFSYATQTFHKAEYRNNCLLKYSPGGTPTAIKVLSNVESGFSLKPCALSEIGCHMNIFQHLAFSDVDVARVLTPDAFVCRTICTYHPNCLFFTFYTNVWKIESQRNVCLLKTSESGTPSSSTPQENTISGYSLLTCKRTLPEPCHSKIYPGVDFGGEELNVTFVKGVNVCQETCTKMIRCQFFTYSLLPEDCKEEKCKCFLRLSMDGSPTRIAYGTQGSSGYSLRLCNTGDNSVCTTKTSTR
human factor XIa, sequence (P03951 388-625 limits assumed): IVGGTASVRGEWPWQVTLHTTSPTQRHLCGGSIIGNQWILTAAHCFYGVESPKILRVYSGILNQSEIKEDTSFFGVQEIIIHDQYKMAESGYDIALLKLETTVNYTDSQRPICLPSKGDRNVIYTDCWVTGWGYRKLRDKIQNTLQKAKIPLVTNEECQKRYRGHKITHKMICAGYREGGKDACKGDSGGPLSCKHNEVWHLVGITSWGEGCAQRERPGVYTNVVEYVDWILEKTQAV
human factor XIa, sequence (P03951 19-387 partner limits assumed): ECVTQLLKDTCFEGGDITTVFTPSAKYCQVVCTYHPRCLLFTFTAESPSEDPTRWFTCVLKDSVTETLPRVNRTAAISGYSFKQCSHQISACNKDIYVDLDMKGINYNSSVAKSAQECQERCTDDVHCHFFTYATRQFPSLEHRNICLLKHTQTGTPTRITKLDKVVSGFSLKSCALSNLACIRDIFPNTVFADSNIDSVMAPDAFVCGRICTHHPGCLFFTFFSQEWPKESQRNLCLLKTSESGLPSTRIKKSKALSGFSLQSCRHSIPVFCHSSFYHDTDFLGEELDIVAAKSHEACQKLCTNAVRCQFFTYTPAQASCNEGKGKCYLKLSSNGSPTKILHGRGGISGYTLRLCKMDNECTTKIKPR

The term IC50 denotes the midpoint of a concentration-inhibition curve. For the compound `CC(c1cnc(N2CC[C@H](O)C2)nc1)n1cc(NC(=O)c2cncc(-c3c(C(F)F)ccc(Cl)c3F)n2)cn1` (mixture of isomers) [Example 96, 6-(3-Chloro-6-(difluoromethyl)-2-fluorophenyl)-N-(1-((R and S)-1-(2-((S)-3-hydroxypyrrolidin-1-yl)pyrimidin-5-yl)ethyl)-1H-pyrazol-4-yl)pyrazine-2-carboxamide], the values for the IC50 against Human plasma kallikrein and at human factor XIa were 25.9 nM and 3710 nM, respectively.

On to `O=C(Nc1cnn(Cc2cnc(N3C[C@H]4C[C@H]4[C@H]3CN[C@H]3CCC[C@@H]3O)nc2)c1)c1cncc(-c2c(C(F)F)ccc(Cl)c2F)n1` [Example 149, 6-(3-Chloro-6-(difluoromethyl)-2-fluorophenyl)-N-(1-((2-((1R,2S,5S)-2-((((1S,2S)-2-hydroxycyclopentyl)amino)methyl)-3-azabicyclo[3.1.0]hexan-3-yl)pyrimidin-5-yl)methyl)-1H-pyrazol-4-yl)pyrazine-2-carboxamide], for which the concentration for half-maximal inhibition (IC50) on human factor XIa turned out to be 1480 nM.

In the case of `CC(c1cnc(N2CC[C@H]2CN2CCCC(C)(O)C2)nc1)n1cc(NC(=O)c2cncc(-c3c(C(F)F)ccc(Cl)c3F)n2)cn1` (stereo partly drawn) [Example 176, 6-(3-Chloro-6-(difluoromethyl)-2-fluorophenyl)-N-(1-(1-(2-((2S)-2-((3-hydroxy-3-methylpiperidin-1-yl)methyl)azetidin-1-yl)pyrimidin-5-yl)ethyl)-1H-pyrazol-4-yl)pyrazine-2-carboxamide], the half-maximal inhibitory concentration (IC50) against Human plasma kallikrein was 1.4 nM.

On Human plasma kallikrein, `CC(c1cnc(N2CC[C@H]2CN2CCC[C@@H](O)C2)nc1)n1cc(NC(=O)c2cncc(-c3c(C(F)F)ccc(Cl)c3F)n2)cn1` (stereo partly drawn) [Example 177, 6-(3-Chloro-6-(difluoromethyl)-2-fluorophenyl)-N-(1-(1-(2-((S)-2-(((R)-3-hydroxypiperidin-1-yl)methyl)azetidin-1-yl)pyrimidin-5-yl)ethyl)-1H-pyrazol-4-yl)pyrazine-2-carboxamide] displayed a 50% inhibitory concentration (IC50) of 1.2 nM.

Consider `CC(c1cnc(N2CC[C@H]2CN2CC[C@@H](O)C[C@@H]2C)nc1)n1cc(NC(=O)c2cncc(-c3c(C(F)F)ccc(Cl)c3F)n2)cn1` (stereo partly drawn) [Example 178, 6-(3-Chloro-6-(difluoromethyl)-2-fluorophenyl)-N-(1-(1-(2-((S)-2-(((2S,4R)-4-hydroxy-2-methylpiperidin-1-yl)methyl)azetidin-1-yl)pyrimidin-5-yl)ethyl)-1H-pyrazol-4-yl)pyrazine-2-carboxamide], for which it took 3.3 nM to reach half-maximal inhibition against Human plasma kallikrein (IC50).

`CC(c1cnc(N2CC[C@H]2CN2CC[C@H](O)[C@@H](C)C2)nc1)n1cc(NC(=O)c2cncc(-c3c(C(F)F)ccc(Cl)c3F)n2)cn1` (stereo partly drawn) [Example 180, 6-(3-Chloro-6-(difluoromethyl)-2-fluorophenyl)-N-(1-(1-(2-((S)-2-(((3S,4S)-4-hydroxy-3-methylpiperidin-1-yl)methyl)azetidin-1-yl)pyrimidin-5-yl)ethyl)-1H-pyrazol-4-yl)pyrazine-2-carboxamide] displayed an IC50 against Human plasma kallikrein of 1.1 nM.

In the case of `CC(c1cnc(N2CC[C@H]2CN[C@@H]2CCC[C@H]2O)nc1)n1cc(NC(=O)c2cncc(-c3c(C(F)F)ccc(Cl)c3F)n2)cn1` (stereo partly drawn) [Example 181, 6-(3-Chloro-6-(difluoromethyl)-2-fluorophenyl)-N-(1-(1-(2-((S)-2-((((1R,2R)-2-hydroxycyclopentyl)amino)methyl)azetidin-1-yl)pyrimidin-5-yl)ethyl)-1H-pyrazol-4-yl)pyrazine-2-carboxamide], at Human plasma kallikrein, the IC50 is 4.2 nM.

With `CC(c1cnc(N2CC[C@H]2CN[C@H](C)C(C)(C)O)nc1)n1cc(NC(=O)c2cncc(-c3c(C(F)F)ccc(Cl)c3F)n2)cn1` (stereo partly drawn) [Example 182, 6-(3-Chloro-6-(difluoromethyl)-2-fluorophenyl)-N-(1-(1-(2-((S)-2-((((R)-3-hydroxy-3-methylbutan-2-yl)amino)methyl)azetidin-1-yl)pyrimidin-5-yl)ethyl)-1H-pyrazol-4-yl)pyrazine-2-carboxamide], the 50% inhibitory concentration (IC50) at Human plasma kallikrein is 6.1 nM.

At Human plasma kallikrein, `CC(c1cnc(N2CC[C@H]2CN(C)[C@H]2CCC[C@@H]2O)nc1)n1cc(NC(=O)c2cncc(-c3c(C(F)F)ccc(Cl)c3F)n2)cn1` (stereo partly drawn) [Example 183, 6-(3-Chloro-6-(difluoromethyl)-2-fluorophenyl)-N-(1-(1-(2-((S)-2-((((1S,2S)-2-hydroxycyclopentyl)(methyl)amino)methyl)azetidin-1-yl)pyrimidin-5-yl)ethyl)-1H-pyrazol-4-yl)pyrazine-2-carboxamide] returned an IC50 of 4.2 nM.

The compound `CC(c1cnc(N2CC[C@H]2[C@@H](C)N2CC[C@H](O)[C@@H]2C)nc1)n1cc(NC(=O)c2cncc(-c3c(C(F)F)ccc(Cl)c3F)n2)cn1` (stereo partly drawn) [Example 185, 6-(3-Chloro-6-(difluoromethyl)-2-fluorophenyl)-N-(1-(1-(2-((S)-2-((R)-1-((2S,3S)-3-hydroxy-2-methylpyrrolidin-1-yl)ethyl)azetidin-1-yl)pyrimidin-5-yl)ethyl)-1H-pyrazol-4-yl)pyrazine-2-carboxamide] displayed an IC50 at Human plasma kallikrein of 1.5 nM.

With `CC(c1cnc(N2CC[C@H]2[C@@H](C)N2CC[C@H](O)C2)nc1)n1cc(NC(=O)c2cncc(-c3c(C(F)F)ccc(Cl)c3F)n2)cn1` (stereo partly drawn) [Example 186, 6-(3-Chloro-6-(difluoromethyl)-2-fluorophenyl)-N-(1-(1-(2-((S)-2-((R)-1-((S)-3-hydroxypyrrolidin-1-yl)ethyl)azetidin-1-yl)pyrimidin-5-yl)ethyl)-1H-pyrazol-4-yl)pyrazine-2-carboxamide], at Human plasma kallikrein, the concentration for half-maximal inhibition (IC50) stood at 1.4 nM.

Regarding `CC(c1cnc(N2CC[C@H]2[C@@H](C)N2C[C@@H](O)[C@H](F)C2)nc1)n1cc(NC(=O)c2cncc(-c3c(C(F)F)ccc(Cl)c3F)n2)cn1` (stereo partly drawn) [Example 189, 6-(3-Chloro-6-(difluoromethyl)-2-fluorophenyl)-N-(1-(1-(2-((S)-2-((R)-1-((3R,4R)-3-fluoro-4-hydroxypyrrolidin-1-yl)ethyl)azetidin-1-yl)pyrimidin-5-yl)ethyl)-1H-pyrazol-4-yl)pyrazine-2-carboxamide], the IC50 against Human plasma kallikrein turned out to be 1.2 nM.

`CC(c1cnc(N2CC[C@H]2[C@@H](C)N2CC(C)(O)C2)nc1)n1cc(NC(=O)c2cncc(-c3c(C(F)F)ccc(Cl)c3F)n2)cn1` (stereo partly drawn) [Example 190, 6-(3-Chloro-6-(difluoromethyl)-2-fluorophenyl)-N-(1-(1-(2-((S)-2-((R)-1-(3-hydroxy-3-methylazetidin-1-yl)ethyl)azetidin-1-yl)pyrimidin-5-yl)ethyl)-1H-pyrazol-4-yl)pyrazine-2-carboxamide] returned an IC50 on Human plasma kallikrein of 3.5 nM.

Regarding `CC(c1cnc(N2CC[C@H]2[C@@H](C)N2CC(C(C)(C)O)C2)nc1)n1cc(NC(=O)c2cncc(-c3c(C(F)F)ccc(Cl)c3F)n2)cn1` (stereo partly drawn) [Example 191, 6-(3-Chloro-6-(difluoromethyl)-2-fluorophenyl)-N-(1-(1-(2-((S)-2-((R)-1-(3-(2-hydroxypropan-2-yl)azetidin-1-yl)ethyl)azetidin-1-yl)pyrimidin-5-yl)ethyl)-1H-pyrazol-4-yl)pyrazine-2-carboxamide], inhibition against Human plasma kallikrein was half-maximal at 1.1 nM (IC50).

On to `CC(c1cnc(N2CC[C@H]2[C@@H](C)NCC2(O)CC2)nc1)n1cc(NC(=O)c2cncc(-c3c(C(F)F)ccc(Cl)c3F)n2)cn1` (stereo partly drawn) [Example 192, 6-(3-Chloro-6-(difluoromethyl)-2-fluorophenyl)-N-(1-(1-(2-((S)-2-((R)-1-(((1-hydroxycyclopropyl)methyl)amino)ethyl)azetidin-1-yl)pyrimidin-5-yl)ethyl)-1H-pyrazol-4-yl)pyrazine-2-carboxamide], for which, at Human plasma kallikrein, the concentration for half-maximal inhibition (IC50) was found to be 4.1 nM.

On Human plasma kallikrein, `CC(c1cnc(N2CC[C@H]2[C@@H](C)N[C@@H]2CCC[C@H]2O)nc1)n1cc(NC(=O)c2cncc(-c3c(C(F)F)ccc(Cl)c3F)n2)cn1` (stereo partly drawn) [Example 193, 6-(3-Chloro-6-(difluoromethyl)-2-fluorophenyl)-N-(1-(1-(2-((S)-2-((R)-1-(((1R,2R)-2-hydroxycyclopentyl)amino)ethyl)azetidin-1-yl)pyrimidin-5-yl)ethyl)-1H-pyrazol-4-yl)pyrazine-2-carboxamide] showed an IC50 of 8.1 nM.

Consider `CC(c1cnc(N2CC[C@H]2[C@@H](C)N[C@H](C)C(C)(C)O)nc1)n1cc(NC(=O)c2cncc(-c3c(C(F)F)ccc(Cl)c3F)n2)cn1` (stereo partly drawn) [Example 194, 6-(3-Chloro-6-(difluoromethyl)-2-fluorophenyl)-N-(1-(1-(2-((S)-2-((R)-1-(((R)-3-hydroxy-3-methylbutan-2-yl)amino)ethyl)azetidin-1-yl)pyrimidin-5-yl)ethyl)-1H-pyrazol-4-yl)pyrazine-2-carboxamide], for which the midpoint of inhibition against Human plasma kallikrein, the IC50, lay at 21.6 nM.

On to `O=C(Nc1cnn(Cc2ccc(N3CC4CCC(C3)N4)nc2)c1)c1cncc(-c2c(C(F)F)ccc(Cl)c2F)n1` [Example 204, N-(1-((6-(3,8-Diazabicyclo[3.2.1]octan-3-yl)pyridin-3-yl)methyl)-1H-pyrazol-4-yl)-6-(3-chloro-6-(difluoromethyl)-2-fluorophenvl)pyrazine-2-carboxamide], for which half-maximal inhibition against Human plasma kallikrein (IC50) required 17.5 nM.

For the compound `CN1C2CCC1CN(c1ccc(Cn3cc(NC(=O)c4cncc(-c5c(C(F)F)ccc(Cl)c5F)n4)cn3)cn1)C2` [Example 205, 6-(3-Chloro-6-(difluoromethyl)-2-fluorophenyl)-N-(1-((6-(8-methyl-3,8-diazabicyclo[3.2.1]octan-3-yl)pyridin-3-yl)methyl)-1H-pyrazol-4-yl)pyrazine-2-carboxamide], the IC50 on Human plasma kallikrein came to 14.1 nM.

For the origin of these results see patent publication US20230416227A1, “PLASMA KALLIKREIN INHIBITORS” (Merck Sharp & Dohme LLC, priority 2020, published 2023).
